Data taken from the Deep4Chem optical property database.
Each block holds one compound with its values, some of them ahead of it.

Assay: solvent given as SMILES
[1] = in O=P(c1ccccc1)(c1ccccc1)c1ccccc1Oc1ccccc1P(=O)(c1ccccc1)c1ccccc1

Compound: Cc1cc(C)c(B(c2ccc(-c3ccc(-c4nc5c6ccccc6c6ccccc6c5[nH]4)cc3)cc2)c2c(C)cc(C)cc2C)c(C)c1
- emission maximum (in C1CCOC1): 474 nm
- emission maximum (in CC(C)=O): 493 nm
- emission maximum (in CS(C)=O): 520 nm
- emission maximum (in Cc1ccccc1): 435 nm
- emission maximum (in ClCCl): 469 nm

Compound: Cn1c(=O)c(/N=N/c2cc(S(=O)(=O)O)ccc2S(=O)(=O)O)c(O)c2ccccc21
- emission maximum (in C1CCOC1): 498 nm
- emission maximum (in CC(C)=O): 491 nm
- emission maximum (in CCOC(C)=O): 493 nm
- emission maximum (in CO): 483 nm
- emission maximum (in CS(C)=O): 490 nm
- emission maximum (in Cc1ccccc1): 490 nm
- emission maximum (in ClCCl): 493 nm
- emission maximum (in O): 500 nm

Compound: Cn1cccc1-c1ccc(C#N)cc1
- emission maximum (in C1CCOC1): 383 nm
- emission maximum (in CC#N): 407 nm
- emission maximum (in CCCCCC): 357 nm
- emission maximum (in CCCCOCCCC): 367 nm
- emission maximum (in CCOCC): 371 nm

Compound: c1ccc(-c2nnc(-c3ccc(N4c5ccccc5Oc5ccccc54)cc3)o2)cc1
- emission maximum (in Cc1ccccc1): 495 nm
- emission maximum (in c1ccc(-n2c(-c3c(-n4c5ccccc5c5ccccc54)cccc3-n3c4ccccc4c4ccccc43)nc3ccccc32)cc1): 498 nm

Compound: CC1(C)c2ccccc2-n2c(-c3ccc(-n4c5ccc(-n6c7ccccc7c7ccccc76)cc5c5cc(-n6c7ccccc7c7ccccc76)ccc54)cc3)nc3cccc1c32
- emission maximum (in Cc1ccccc1): 401 nm
- emission maximum [1]: 409 nm

Compound: CCC1(CC)c2cc(B(c3c(C)cc(C)cc3C)c3c(C)cc(C)cc3C)ccc2-c2c1c1c(c3c2C(CC)(CC)c2cc(B(c4c(C)cc(C)cc4C)c4c(C)cc(C)cc4C)ccc2-3)C(CC)(CC)c2cc(B(c3c(C)cc(C)cc3C)c3c(C)cc(C)cc3C)ccc2-1
- emission maximum (in C1CCOC1): 386 nm
- emission maximum (in CC#N): 403 nm
- emission maximum (in CC(C)=O): 396 nm
- emission maximum (in CCCCCC): 382 nm
- emission maximum (in Cc1ccccc1): 385 nm

- emission maximum (in ClCCl): 405 nm
Compound: O=Cc1ccc2c(c1)c1ccccc1n2-c1ccc(-c2ccc(-n3c4ccccc4c4cc(C=O)ccc43)cc2)cc1

- emission maximum (in ClC(Cl)Cl): 434 nm
Compound: COc1ccc2cc(-c3ccc(-c4cc5ccc(OC)cc5oc4=O)cc3)c(=O)oc2c1

- emission maximum (in ClC(Cl)Cl): 663 nm
Compound: CCCCCCCCCCCCOc1cc2c3cc(OCCCCCCCCCCCC)c(OCCCCCCCCCCCC)cc3c3c(cc(OCCCCCCCCCCCC)c4nc5cc(C#Cc6ccc(CCCCCCCCCC)cc6)c(C#Cc6ccc(CCCCCCCCCC)cc6)cc5nc43)c2cc1OCCCCCCCCCCCC

- emission maximum (in CCCCOCCCC): 374 nm
Compound: Clc1nc(Cl)nc(Nc2cc3ccc4cccc5ccc(c2)c3c45)n1

Compound: O=S(=O)(c1ccc(-c2ccc3c(c2)c2ccccc2n3-c2ccccc2)cc1)c1ccc(-c2ccc3c(c2)c2ccccc2n3-c2ccccc2)cc1
- emission maximum (in C1CCCCC1): 365.07 nm
- emission maximum (in C1CCOC1): 403.28 nm
- emission maximum (in CN(C)C=O): 431.81 nm
- emission maximum (in Cc1ccccc1): 381 nm
- emission maximum (in ClC(Cl)Cl): 402.48 nm
- emission maximum (in ClCCl): 415.93 nm

- emission maximum (in ClCCl): 542 nm
Compound: CCC1=C(C)C2=C(/C=C/c3ccc(OC)cc3)c3c(C)c(CC)c(C)n3[B-](F)(F)[N+]2=C1C

- emission maximum (in ClCCl): 610 nm
Compound: Cc1cc(C)c(C2=C3C=C(/C=C/C(=O)OC(C)(C)C)C=[N+]3[B-](F)(F)n3cc(/C=C/C(=O)OC(C)(C)C)cc32)c(C)c1

- emission maximum (in ClC(Cl)Cl): 774 nm
Compound: CCc1c(CC)c2n(c1C)[B-](F)(F)[N+]1=C(C)c3cc4c(cc3C1=C2)=[N+]1C(=Cc2c(CC)c(CC)c(C)n2[B-]1(F)F)C=4C

- emission maximum (in CCOC(C)=O): 460 nm
Compound: CCn1c(-c2ccc(-c3ccc4ccc5cccc6ccc3c4c56)cc2)c(-c2ccc3ccccc3c2)c(-c2ccc3ccccc3c2)c1-c1ccc(-c2ccc3ccc4cccc5ccc2c3c45)cc1

- emission maximum (in ClCCl): 455 nm
Compound: c1ccc(N2N=C(c3cccc4ccccc34)CC2c2ccc3ccc4cccc5ccc2c3c45)cc1 (stereo unspecified)

- emission maximum (in ClCCl): 587 nm
Compound: COc1ccccc1C1=[N+]2C(=C(c3ccccc3)c3c4c(c(-c5ccccc5OC)n3[B-]2(F)F)C2C=CC4CC2)C2=C1C1C=CC2CC1 (stereo unspecified)

Compound: c1ccc(-c2nnc(-c3ccc(N4c5ccccc5N(c5ccccc5)c5ccccc54)cc3)o2)cc1
- emission maximum (in Cc1ccccc1): 577 nm
- emission maximum (in c1cc(-n2c3ccccc3c3ccccc32)cc(-n2c3ccccc3c3ccccc32)c1): 550 nm

- emission maximum (in ClCCl): 541 nm
Compound: C(#Cc1c2ccccc2c(-c2ccccc2)c2cc3ccccc3cc12)c1ccccc1

- emission maximum (in ClCCl): 489 nm
Compound: C(=C\c1cc(-c2ccc3ccccc3c2)c(/C=C/c2ccc(N(c3ccccc3)c3ccccc3)cc2)cc1-c1ccc2ccccc2c1)/c1ccc(N(c2ccccc2)c2ccccc2)cc1

Compound: CCN(CC)c1ccc2c(C#N)c(/C=C(\C#N)c3nc4ccccc4s3)c(=O)oc2c1
- emission maximum (in C1COCCO1): 647 nm
- emission maximum (in CC#N): 679 nm
- emission maximum (in CCO): 692 nm
- emission maximum (in CCOC(C)=O): 664 nm
- emission maximum (in CO): 701 nm
- emission maximum (in Cc1ccccc1): 637 nm
- emission maximum (in ClCCl): 666 nm

Compound: C(#Cc1nc2ccccc2s1)c1ccc(N(c2ccccc2)c2ccccc2)cc1
- emission maximum (in Cc1ccccc1): 437 nm

Compound: FC(F)(F)c1ccc(-c2c3cccc4c5cccc6c(-c7ccc(C(F)(F)F)cc7)c7cccc8c9cccc2c9c(c34)c(c65)c78)cc1
- emission maximum (in Cc1ccccc1): 699 nm

Compound: c1ccc(N(c2ccccc2)c2ccc(-c3cccc4nc5ccccc5cc34)cc2)cc1
- emission maximum (in C1CCOC1): 535 nm
- emission maximum (in CC#N): 572 nm
- emission maximum (in CC(C)OC(C)C): 496 nm
- emission maximum (in CCCCCC): 462 nm
- emission maximum (in CCCCOCCCC): 491 nm
- emission maximum (in CCN(CC)CC): 479 nm
- emission maximum (in CCOC(C)=O): 532 nm
- emission maximum (in CCOCC): 507 nm
- emission maximum (in CN(C)C=O): 566 nm
- emission maximum (in ClCCl): 555 nm

Compound: N#C/C=C/c1ccc2ccc3cccc4ccc1c2c34
- emission maximum (in C1CCOC1): 425 nm
- emission maximum (in C1COCCO1): 421.5 nm
- emission maximum (in C=CC#N): 439.5 nm
- emission maximum (in CC#N): 440.5 nm
- emission maximum (in CC(C)=O): 433 nm
- emission maximum (in CCCCCC): 409.5 nm
- emission maximum (in CCOC(C)=O): 423 nm
- emission maximum (in CO): 443 nm
- emission maximum (in Cc1ccccc1): 423 nm
- emission maximum (in ClCCl): 434 nm

- emission maximum (in C1CCOC1): 623 nm
- emission maximum (in CC#N): 640 nm
- emission maximum (in CCO): 641 nm
- emission maximum (in CCOC(C)=O): 618 nm
- emission maximum (in ClCCl): 625 nm
- emission maximum (in c1ccccc1): 596 nm
Compound: CC1(C)CC(/C=C/c2ccc(N3CCOCCOCCOCCOCC3)cc2)=CC(=C(C#N)C#N)C1

- emission maximum (in CS(C)=O): 379.1 nm
Compound: c1ccc2[nH]c(-c3cc(-c4nc5ccccc5[nH]4)cc(-c4nc5ccccc5[nH]4)c3)nc2c1

Compound: c1ccc(-c2nc3ccccc3nc2-c2ccccc2)cc1
- emission maximum (in C1CCOC1): 401 nm
- emission maximum (in CC#N): 399 nm
- emission maximum (in CCCCCC): 396 nm
- emission maximum (in CN(C)C=O): 403 nm
- emission maximum (in Cc1ccccc1): 400 nm
- emission maximum (in ClC(Cl)Cl): 398 nm

- emission maximum (in ClCCl): 494 nm
Compound: CCCc1ccc(C#Cc2cc(C#Cc3ccc(CCC)cc3)c3ccc4c(C#Cc5ccc(CCC)cc5)cc(C#Cc5ccc(CCC)cc5)c5ccc2c3c54)cc1

- emission maximum (in CO): 717 nm
- emission maximum (in CS(C)=O): 727 nm
Compound: CCC1=C(C)C2=Cc3c4ccccc4c4n3[B-](c3cc[n+](C)cc3)(Oc3ccccc3-4)[N+]2=C1C=Cc1ccc(OC)cc1 (stereo unspecified)

Compound: CC1(C)c2ccccc2N(c2ccc(-c3nc4cccc5c4n3-c3ccccc3C5(C)C)cc2)c2ccccc21
- emission maximum (in Cc1ccccc1): 450 nm
- emission maximum [1]: 449 nm

- emission maximum (in ClC(Cl)Cl): 535 nm
Compound: CCCCCCCCCCCC#CC#CCCCCCCCCCN1C(=O)c2ccc3c4ccc5c6c(ccc(c7ccc(c2c37)C1=O)c64)C(=O)N(CCCCCCCCCC#CC#CCCCCCCCCCCCC)C5=O

- emission maximum (in ClCCl): 583 nm
Compound: COc1ccccc1C1=[N+]2C(=Cc3c4c(c(-c5ccccc5OC)n3[B-]2(F)F)C2CCC4CC2)C2=C1C1CCC2CC1
